In one experiment the test system is HT-1197 cells. As to the kind of experiment: Cell-based assay: anti-proliferative activity, Cell Counting Kit-8, 72 hours (HT-1197, negative control without MELK expression). Conditions: HT1197 cells (negative control), 72 hours. A digest of the protocol:
(§1)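 Anti-MELK western blot on crude lysates → MELK status per line. Cells plated 96-well, compound exposure, CCK-8 readout at 72 h; IC50 calculated.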

A further experiment has as its system DU4475 cells. Kind of experiment: Cell-based assay: anti-proliferative activity, Cell Counting Kit-8, 72 hours (DU4475). On the technique in general: Formazan colour is commonly taken as a measure of viable cells.
The next experiment concerns the target MELK (Homo sapiens, UniProt Q14680). As to the kind of experiment: Kinase assay: MELK activity, phosphorylation of FITC-labeled histone H3 peptide measured by IMAP fluorescence polarization. It counts as biochemical. Conditions: read-out: IC50 (μM) (kinase assay). A digest of the protocol: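 Compounds, serially diluted from 12.5 mM DMSO stocks to 1% final DMSO, were tested with FITC-labeled histone H3 peptide as substrate. The reaction was stopped with progressive binding solution. Fluorescence polarization was read after 0.5 hour at room temperature.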
In general terms: Polarisation of emitted light reports the rotation of a fluorescent probe.

The test system of another experiment is A549 cells. As to the kind of experiment: Cell-based assay: anti-proliferative activity, Cell Counting Kit-8, 72 hours (A549). Conditions: 72 hours. The procedure, abridged: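 A549 cells seeded in 96-well plates and exposed to candidate inhibitors for 72 hours. Growth measured with Cell Counting Kit-8; IC50 values calculated from the dose response.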
For a further experiment, the system named is T47D cells. Kind of experiment: Cell-based assay: anti-proliferative activity, Cell Counting Kit-8, 72 hours (T47D). A digest of the protocol: as §1

Where a name gives a salt, the structure may show the parent alone. Read-outs that look alike come from different tables or passages of the source.

From patent publication US9120749B2, “Quinoline derivatives and MELK inhibitors containing the same” (ONCOTHERAPY SCIENCE, INC., priority 2010, dated 2015) come the findings set out here.

Chain of MELK (Q14680 whole entry, looked up): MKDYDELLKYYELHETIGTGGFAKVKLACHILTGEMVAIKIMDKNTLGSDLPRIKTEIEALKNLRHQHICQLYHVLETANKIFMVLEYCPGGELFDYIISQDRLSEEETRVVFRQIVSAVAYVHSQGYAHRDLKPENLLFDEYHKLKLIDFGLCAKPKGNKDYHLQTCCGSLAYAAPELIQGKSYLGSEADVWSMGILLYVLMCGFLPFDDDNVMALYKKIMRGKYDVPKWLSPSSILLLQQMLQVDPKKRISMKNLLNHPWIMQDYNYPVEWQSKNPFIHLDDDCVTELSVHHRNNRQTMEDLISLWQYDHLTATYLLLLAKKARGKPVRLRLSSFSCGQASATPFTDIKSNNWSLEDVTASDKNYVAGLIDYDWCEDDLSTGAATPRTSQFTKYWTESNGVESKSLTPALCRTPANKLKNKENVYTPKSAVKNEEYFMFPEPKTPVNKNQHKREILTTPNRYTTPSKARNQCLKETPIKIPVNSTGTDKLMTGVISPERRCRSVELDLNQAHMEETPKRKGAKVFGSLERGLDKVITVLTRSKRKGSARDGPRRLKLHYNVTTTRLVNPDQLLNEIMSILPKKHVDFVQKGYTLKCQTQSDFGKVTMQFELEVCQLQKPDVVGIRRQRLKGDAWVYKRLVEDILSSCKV

One may read the IC50 as the concentration that gives 50% inhibition. Take `NC1CCN(c2ccc(Nc3c(C(=O)C4CC4)cnc4ccc(-c5cc(Cl)c(O)c(Cl)c5)cc34)cn2)CC1` [Example 549, (4-(6-(4-Aminopiperidin-1-yl)pyridin-3-ylamino)-6-(3,5-dichloro-4-hydroxyphenyl)quinolin-3-1)(cyclopropyl)methanone hydrochloride]: the IC50 in the experiment with HT-1197 cells (hydrochloride) is 3.2 µM; with DU4475 cells (hydrochloride), 0.078 µM; on MELK (hydrochloride) it was 0.0027 µM; in the experiment on A549 cells (hydrochloride), 0.48 µM; with T47D cells (72 hours, hydrochloride), 0.15 µM.

For `CCCC(=O)c1cnc2ccc(-c3cc(Cl)c(O)c(OC)c3)cc2c1Nc1ccc(CN(C)C)cc1` [Example 538, 1-(6-(3-chloro-4-hydroxy-5-methoxyphenyl)-4-(4-((dimethylamino)methyl)phenylamino)quinolin-3-yl)butan-1-one], the half-maximal inhibitory concentration (IC50) with HT-1197 cells (Homo sapiens, HT1197, 72 h) worked out at 3.1 µM; with DU4475 cells (Homo sapiens, DU-4475, 72 h), 0.27 µM; at MELK, 0.02 µM; in the experiment with A549 cells (Homo sapiens, A549, 72 h) it was 0.45 µM; with T47D cells (Homo sapiens, T47D, 72 h), 0.28 µM.

For `COc1cc(-c2ccc3ncc(C(=O)C4CC4)c(N[C@H]4CC[C@H](CN5CCCC5)CC4)c3c2)cc(Cl)c1O` [Example 586], the IC50 with HT-1197 cells (Homo sapiens, HT1197, 72 h) came out at 3 µM; with DU4475 cells (Homo sapiens, DU-4475, 72 h), 0.19 µM; on MELK it was 0.0028 µM; with A549 cells (Homo sapiens, A549, 72 h), 0.2 µM; with T47D cells (Homo sapiens, T47D, 72 h) it was 0.38 µM.

As for `CC(C)(N)c1ccc(Nc2c(C(=O)C3CC3)cnc3ccc(-c4cc(Cl)c(O)c(Cl)c4)cc23)cc1` [Example 601, {4-[4-(2-Aminopropan-2-yl)phenylamino]-6-(3,5-dichloro-4-hydroxyphenyl)quinolin-3-yl}(cyclopropyl)methanone hydrochloride], the IC50 was determined as 0.42 µM with HT-1197 cells (Homo sapiens, HT1197, 72 h); 0.023 µM with DU4475 cells (Homo sapiens, DU-4475, 72 h); 0.0014 µM on MELK (hydrochloride); 0.047 µM with A549 cells (Homo sapiens, A549, 72 h); 0.09 µM in the experiment on T47D cells (Homo sapiens, T47D, 72 h).

`O=C(c1cnc2ccc(-c3cc(Cl)c(O)c(Cl)c3)cc2c1N[C@H]1CC[C@H](CN2CCC(O)C2)CC1)C1CC1` (stereo partly drawn) [Example 600, cyclopropyl(6-(3,5-dichloro-4-hydroxyphenyl)-4-((trans-4-((3-hydroxypyrrolidin-1-yl)methyl)cyclohexyl)amino)quinolin-3-yl)methanone]: the half-inhibitory concentration (IC50) in the experiment with HT-1197 cells (Homo sapiens, HT1197, 72 h) turned out to be 0.76 µM; in the experiment on DU4475 cells (Homo sapiens, DU-4475, 72 h), 0.029 µM; on MELK, 0.00073 µM; with A549 cells (Homo sapiens, A549, 72 h), 0.12 µM; in the experiment with T47D cells (Homo sapiens, T47D, 72 h) it was 0.078 µM.

In the case of `CN(C)C[C@H]1CC[C@@H](Nc2c(C(=O)C3CC3)cnc3ccc(-c4cc(F)c(O)c(Cl)c4)cc23)CC1` [Example 514, (6-(3-chloro-5-fluoro-4-hydroxyphenyl)-4-((1s,4s)-4-((dimethylamino)methyl)cyclohexylamino)quinolin-3-yl)(cyclopropyl)methanone], the IC50 with HT-1197 cells (Homo sapiens, HT1197, 72 h) is 0.77 µM; in the experiment on DU4475 cells (Homo sapiens, DU-4475, 72 h), 0.21 µM; on MELK, 0.0028 µM; in the experiment with A549 cells (Homo sapiens, A549, 72 h) it was 0.26 µM; in the experiment with T47D cells (Homo sapiens, T47D, 72 h) it was 0.44 µM.

In the case of `O=C(c1cnc2ccc(-c3cc(Cl)c(O)c(Cl)c3)cc2c1N[C@H]1C[C@H]2CC[C@@H](C1)N2)C1CC1` [Example 580, (4-((1R,3r,5S)-8-azabicyclo[3.2.1]octan-3-ylamino)-6-(3,5-dichloro-4-hydroxyphenyl)quinolin-3-yl)(cyclopropyl)methanone], the IC50 in the experiment on HT-1197 cells (Homo sapiens, HT1197, 72 h) was 4.1 µM; in the experiment on DU4475 cells (Homo sapiens, DU-4475, 72 h), 0.12 µM; on MELK, 0.0045 µM; with A549 cells (Homo sapiens, A549, 72 h), 0.69 µM; with T47D cells (Homo sapiens, T47D, 72 h) it was 0.25 µM.

`O=C(c1cnc2ccc(-c3cc(F)c(O)c(Cl)c3)cc2c1Nc1ccc(NC2CCCNC2)nc1)C1CC1` (stereo not shown) [Example 611, (6-(3-chloro-5-fluoro-4-hydroxyphenyl)-4-(6-(piperidin-3-ylamino)pyridin-3-ylamino)quinolin-3-yl)(cyclopropyl)methanone]: the 50% inhibitory concentration (IC50) came to 10 µM in the experiment with HT-1197 cells (Homo sapiens, HT1197, 72 h); 0.39 µM in the experiment with DU4475 cells (Homo sapiens, DU-4475, 72 h); 0.0023 µM at MELK; 0.57 µM in the experiment on A549 cells (Homo sapiens, A549, 72 h); 0.13 µM in the experiment on T47D cells (Homo sapiens, T47D, 72 h).
